Assay results: patent publication US20090227575A1, “7H-PYRROLO[2,3-H]QUINAZOLINE COMPOUNDS, THEIR USE AS mTOR KINASE AND PI3 KINASE INHIBITORS, AND THEIR [sequence]” (Wyeth, priority 2008, published 2009)
Read-outs that look alike come from different tables or passages of the source.

Tests used:
[1] = molecular target: PI3K-gamma (Homo sapiens, UniProt P48736); test: PI3K-gamma fluorescence polarization assay; format: biochemical; details: read-out: PI3 Kinase γ IC50
Outline: (§1)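 Diluted enzyme and compound (1% DMSO) reacted with diC8 PIP2 and ATP substrate in 20 mM HEPES pH 7.5, 2 mM MgCl2, 0.05% CHAPS for 30–60 min. Stopped with EDTA buffer holding 10 nM TAMRA probe and 70 nM GST-GRP. FP (mP) read after 30–90 min against zero-time and no-enzyme controls.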

[2] = test system: human breast MDA468 tumor cell line; test: In vitro cell culture growth assay (MTS), MDA468; format: cell-based; details: 72 h, three days after drug treatment
Description: (§2) Cell Lines used are human prostate LNCap and human breast MDA468 tumor cell lines. Cells are plated in 96-well culture plates at approximately 3000 cells per well. […] Three days after drug treatment, viable cell densities are determined by cell mediated metabolic conversion of the dye MTS, a well-established indicator of cell proliferation in vitro. Cell growth assays are performed using kits purchased from Promega Corporation (Madison, Wis.), following the protocol provided by the vendor. Measuring absorbance at 490 nm generates MTS assay results. Compound effect on cell proliferation is assessed relative to untreated control cell growth.

[3] = molecular target: human SMG-1 (hSMG-1) (Homo sapiens, UniProt Q96Q15); test: hSMG-1 kinase assay (DELFIA); format: biochemical; details: read-out: hSMG1 IC50
[4] = test system: human prostate LNCap tumor cell line; test: In vitro cell culture growth assay (MTS), LNCap; format: cell-based; details: 72 h, three days after drug treatment
Description: as §2

[5] = molecular target: PI3K-alpha (Homo sapiens, UniProt P42336); test: PI3K-alpha fluorescence polarization assay; format: biochemical; details: read-out: PI3 Kinase α IC50
Outline: as §1

[6] = molecular target: T1, Human mTOR (Homo sapiens, UniProt P42345); test: mTOR kinase assay (DELFIA format, purified enzyme); format: biochemical; parameters: FLAG; details: read-out: TOR Kinase IC50
[7] = test system: human tumor xenograft models; details: cited from earlier work
[8] = test system: acute lymphoblastic leukemia xenograft; details: NOS/SCID xenograft mouse model of acute lymphoblastic leukemia; cited from earlier work
[9] = molecular target: hSMG-1 (Homo sapiens, UniProt Q96Q15); details: read-out: hSMG-1 kinase activity IC50; cited from earlier work
[10] = molecular target: T1, Human mTOR; details: read-out: mTOR enzymes IC50; cited from earlier work

human SMG-1 (hSMG-1), sequence (Q96Q15 whole entry): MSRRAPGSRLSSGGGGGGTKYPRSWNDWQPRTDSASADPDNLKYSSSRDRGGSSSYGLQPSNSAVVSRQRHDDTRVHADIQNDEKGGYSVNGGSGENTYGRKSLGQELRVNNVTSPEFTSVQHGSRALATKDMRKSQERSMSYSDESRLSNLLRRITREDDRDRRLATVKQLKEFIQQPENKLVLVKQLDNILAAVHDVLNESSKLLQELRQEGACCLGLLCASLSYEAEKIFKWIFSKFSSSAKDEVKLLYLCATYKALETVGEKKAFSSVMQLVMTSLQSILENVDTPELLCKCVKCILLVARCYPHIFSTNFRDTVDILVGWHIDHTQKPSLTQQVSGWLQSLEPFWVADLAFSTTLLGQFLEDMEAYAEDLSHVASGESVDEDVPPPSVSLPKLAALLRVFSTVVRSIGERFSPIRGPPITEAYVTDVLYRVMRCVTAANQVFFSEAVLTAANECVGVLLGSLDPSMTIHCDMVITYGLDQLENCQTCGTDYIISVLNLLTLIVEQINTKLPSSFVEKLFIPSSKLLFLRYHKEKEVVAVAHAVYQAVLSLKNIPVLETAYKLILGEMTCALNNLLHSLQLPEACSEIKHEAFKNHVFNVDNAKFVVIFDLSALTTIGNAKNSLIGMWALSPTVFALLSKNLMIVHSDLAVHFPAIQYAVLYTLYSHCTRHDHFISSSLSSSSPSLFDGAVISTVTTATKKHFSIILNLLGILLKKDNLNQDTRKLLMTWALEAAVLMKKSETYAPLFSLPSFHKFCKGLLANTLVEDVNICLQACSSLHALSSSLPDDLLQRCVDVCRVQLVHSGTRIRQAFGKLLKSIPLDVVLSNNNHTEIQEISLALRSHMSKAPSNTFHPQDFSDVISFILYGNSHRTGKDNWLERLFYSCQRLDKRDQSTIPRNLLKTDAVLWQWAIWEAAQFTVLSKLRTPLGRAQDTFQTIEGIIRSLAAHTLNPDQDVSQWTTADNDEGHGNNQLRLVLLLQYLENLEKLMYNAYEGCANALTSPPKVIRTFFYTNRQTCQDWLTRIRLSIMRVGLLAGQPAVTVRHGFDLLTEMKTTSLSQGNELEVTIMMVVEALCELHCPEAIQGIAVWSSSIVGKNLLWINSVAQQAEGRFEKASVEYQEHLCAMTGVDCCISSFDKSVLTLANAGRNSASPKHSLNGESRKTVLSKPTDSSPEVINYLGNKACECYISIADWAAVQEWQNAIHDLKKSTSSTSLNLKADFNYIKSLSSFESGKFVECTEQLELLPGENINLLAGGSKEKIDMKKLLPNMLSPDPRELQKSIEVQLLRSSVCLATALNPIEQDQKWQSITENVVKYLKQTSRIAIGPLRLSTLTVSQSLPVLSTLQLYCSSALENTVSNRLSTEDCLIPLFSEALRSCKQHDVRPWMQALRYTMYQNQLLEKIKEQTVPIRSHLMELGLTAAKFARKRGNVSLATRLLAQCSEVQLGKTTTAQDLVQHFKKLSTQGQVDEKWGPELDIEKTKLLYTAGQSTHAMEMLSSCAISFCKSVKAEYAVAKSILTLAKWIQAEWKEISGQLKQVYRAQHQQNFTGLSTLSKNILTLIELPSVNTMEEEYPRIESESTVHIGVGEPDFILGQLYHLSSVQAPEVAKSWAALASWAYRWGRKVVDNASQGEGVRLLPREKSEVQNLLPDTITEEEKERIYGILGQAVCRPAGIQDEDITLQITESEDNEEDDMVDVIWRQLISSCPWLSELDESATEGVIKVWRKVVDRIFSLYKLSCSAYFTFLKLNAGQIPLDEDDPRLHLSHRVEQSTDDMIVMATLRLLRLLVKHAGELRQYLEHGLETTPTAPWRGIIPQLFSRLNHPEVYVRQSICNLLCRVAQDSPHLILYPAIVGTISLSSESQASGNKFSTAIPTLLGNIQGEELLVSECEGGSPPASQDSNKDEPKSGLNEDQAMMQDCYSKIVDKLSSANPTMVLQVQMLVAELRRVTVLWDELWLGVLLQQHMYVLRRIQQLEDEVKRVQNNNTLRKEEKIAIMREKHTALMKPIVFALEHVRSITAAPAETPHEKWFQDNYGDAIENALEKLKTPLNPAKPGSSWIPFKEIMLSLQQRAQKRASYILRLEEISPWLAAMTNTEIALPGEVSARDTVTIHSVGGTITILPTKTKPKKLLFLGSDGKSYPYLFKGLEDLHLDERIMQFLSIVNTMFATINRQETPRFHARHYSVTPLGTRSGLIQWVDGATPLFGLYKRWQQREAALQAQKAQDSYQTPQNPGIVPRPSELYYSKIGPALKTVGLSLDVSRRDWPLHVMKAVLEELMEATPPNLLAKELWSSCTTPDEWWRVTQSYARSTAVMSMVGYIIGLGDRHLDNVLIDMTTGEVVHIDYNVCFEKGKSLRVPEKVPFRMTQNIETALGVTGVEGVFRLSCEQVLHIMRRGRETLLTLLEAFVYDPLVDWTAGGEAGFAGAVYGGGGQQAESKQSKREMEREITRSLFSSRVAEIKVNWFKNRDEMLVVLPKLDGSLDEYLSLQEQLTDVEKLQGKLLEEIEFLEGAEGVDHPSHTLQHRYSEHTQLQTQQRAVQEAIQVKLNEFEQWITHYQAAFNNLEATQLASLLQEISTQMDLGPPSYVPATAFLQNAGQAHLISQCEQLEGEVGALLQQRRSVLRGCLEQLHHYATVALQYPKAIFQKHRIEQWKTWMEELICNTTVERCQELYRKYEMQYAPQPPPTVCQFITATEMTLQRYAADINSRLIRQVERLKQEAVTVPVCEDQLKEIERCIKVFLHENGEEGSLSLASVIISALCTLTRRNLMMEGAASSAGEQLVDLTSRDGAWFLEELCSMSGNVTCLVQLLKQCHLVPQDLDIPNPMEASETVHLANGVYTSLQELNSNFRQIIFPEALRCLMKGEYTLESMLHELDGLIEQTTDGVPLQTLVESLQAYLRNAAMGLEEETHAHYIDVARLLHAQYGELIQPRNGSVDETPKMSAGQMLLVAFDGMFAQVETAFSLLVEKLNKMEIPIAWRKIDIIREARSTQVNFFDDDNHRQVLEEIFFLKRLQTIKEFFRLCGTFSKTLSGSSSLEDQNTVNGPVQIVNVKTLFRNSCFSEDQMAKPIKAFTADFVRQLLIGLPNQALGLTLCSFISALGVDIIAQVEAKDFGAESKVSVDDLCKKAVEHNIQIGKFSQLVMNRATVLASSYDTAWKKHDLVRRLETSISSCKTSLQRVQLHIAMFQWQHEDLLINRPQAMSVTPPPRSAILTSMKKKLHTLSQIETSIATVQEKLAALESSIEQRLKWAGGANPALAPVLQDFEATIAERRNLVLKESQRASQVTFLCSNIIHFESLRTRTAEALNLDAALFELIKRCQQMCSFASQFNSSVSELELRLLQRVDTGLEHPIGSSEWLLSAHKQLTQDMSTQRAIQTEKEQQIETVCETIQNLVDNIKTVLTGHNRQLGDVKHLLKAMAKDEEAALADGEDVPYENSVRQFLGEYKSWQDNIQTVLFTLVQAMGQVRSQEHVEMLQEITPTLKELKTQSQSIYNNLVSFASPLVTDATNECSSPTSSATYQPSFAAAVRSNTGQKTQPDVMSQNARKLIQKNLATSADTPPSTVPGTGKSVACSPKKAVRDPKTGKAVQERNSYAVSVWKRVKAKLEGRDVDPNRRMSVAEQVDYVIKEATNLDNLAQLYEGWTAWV
hSMG-1, sequence (Q96Q15 whole entry): as above
PI3K-gamma, sequence (P48736 whole entry, species assumed): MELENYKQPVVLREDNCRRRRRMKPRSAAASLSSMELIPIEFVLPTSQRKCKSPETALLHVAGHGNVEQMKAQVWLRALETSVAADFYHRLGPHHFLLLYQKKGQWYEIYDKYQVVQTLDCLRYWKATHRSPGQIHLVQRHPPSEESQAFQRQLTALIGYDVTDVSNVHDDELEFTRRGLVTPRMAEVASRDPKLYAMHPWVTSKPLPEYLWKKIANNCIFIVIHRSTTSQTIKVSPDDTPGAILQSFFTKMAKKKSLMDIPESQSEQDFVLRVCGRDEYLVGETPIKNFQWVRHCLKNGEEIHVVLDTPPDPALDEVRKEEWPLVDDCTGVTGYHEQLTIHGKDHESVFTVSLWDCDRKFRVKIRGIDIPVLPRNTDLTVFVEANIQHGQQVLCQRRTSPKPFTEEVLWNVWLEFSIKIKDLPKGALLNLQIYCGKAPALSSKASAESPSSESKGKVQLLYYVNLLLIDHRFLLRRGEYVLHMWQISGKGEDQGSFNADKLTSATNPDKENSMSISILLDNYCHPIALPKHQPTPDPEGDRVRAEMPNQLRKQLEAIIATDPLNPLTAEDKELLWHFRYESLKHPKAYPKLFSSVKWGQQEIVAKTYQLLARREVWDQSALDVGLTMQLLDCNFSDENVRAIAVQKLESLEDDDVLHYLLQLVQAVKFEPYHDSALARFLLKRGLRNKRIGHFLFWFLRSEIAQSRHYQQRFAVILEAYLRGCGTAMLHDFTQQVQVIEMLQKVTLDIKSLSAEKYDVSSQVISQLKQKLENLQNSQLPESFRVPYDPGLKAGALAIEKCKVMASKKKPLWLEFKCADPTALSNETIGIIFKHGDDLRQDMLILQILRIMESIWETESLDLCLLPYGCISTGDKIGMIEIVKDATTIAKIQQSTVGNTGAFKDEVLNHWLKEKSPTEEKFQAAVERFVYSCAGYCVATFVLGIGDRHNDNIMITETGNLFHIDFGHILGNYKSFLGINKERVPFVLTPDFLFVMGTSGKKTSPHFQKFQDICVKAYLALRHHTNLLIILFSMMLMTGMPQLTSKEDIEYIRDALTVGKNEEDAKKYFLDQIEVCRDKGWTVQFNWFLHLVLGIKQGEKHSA

`CS(=O)(=O)n1ccc2c3nc(-c4ccc(NC(=O)Nc5cccnc5)cc4)nc(N4CCOCC4)c3ccc21` [Example 85, 1-{4-[7-(methylsulfonyl)-4-morpholin-4-yl-7H-pyrrolo[2,3-h]quinazolin-2-yl]phenyl}-3-pyridin-3-ylurea] gave an IC50 [1] of 142 nM, an IC50 [2] of 70 nM and an IC50 [3] of 160 nM. The IC50 [4] was 48 nM and the IC50 [5] was 22 nM.
With `CCNC(=O)Nc1ccc(-c2nc(N3CCOCC3)c3ccc4c(ccn4S(C)(=O)=O)c3n2)cc1` [Example 89, 1-ethyl-3-{4-[7-(methylsulfonyl)-4-morpholin-4-yl-7H-pyrrolo[2,3-h]quinazolin-2-yl]phenyl}urea] the IC50 [2] was 1900 nM, the IC50 [3] was 200 nM and the IC50 [4] was 690 nM.
Compound `CNC(=O)Nc1ccc(-c2nc(N3CCOCC3)c3ccc4c(ccn4S(C)(=O)=O)c3n2)cc1` [Example 110, 1-methyl-3-{4-[7-(methylsulfonyl)-4-morpholin-4-yl-7H-pyrrolo[2,3-h]quinazolin-2-yl]phenyl}urea] has an IC50 [6] of 2 nM, an IC50 [1] of 1910 nM and an IC50 [2] of 1700 nM. For the same compound, the IC50 [3] was 43 nM, the IC50 [4] was 880 nM and the IC50 [5] was 95 nM.
`CCCNC(=O)Nc1ccc(-c2nc(N3CCOCC3)c3ccc4c(ccn4S(C)(=O)=O)c3n2)cc1` [Example 121, 1-{4-[7-(methylsulfonyl)-4-morpholin-4-yl-7H-pyrrolo[2,3-h]quinazolin-2-yl]phenyl}-3-propylurea] gave an IC50 [6] of 26 nM, an IC50 [2] of 30000 nM and an IC50 [3] of 140 nM. For the same compound, the IC50 [4] was 2000 nM.
In the case of `Cn1c(=O)n(-c2ccc(C(C)(C)C#N)cc2)c2c3cc(-c4cnc5ccccc5c4)ccc3ncc21` [NVP-BEZ-235, 2-methyl-2-(4-(3-methyl-2-oxo-8-(quinolin-3-yl)-2,3-dihydro-1H-imidazo[4,5-c]quinolin-1-yl)phenyl)propanenitrile], the “activity against human tumor models” value ([7]; prostrate (PC-3) and glioblastoma (U-87)) is given as “demonstrated activity”.
For `Oc1cccc(-c2nc(N3CCOCC3)c3oc4ncccc4c3n2)c1` [PI103, 3-(4-(4-morpholinyl)pyrido[3′,2′:4,5]furo[3,2-d]pyrimidin-2-yl)phenol], the “activity against human tumor models” value ([7]; I.P. dosing in mice, U87MG, PC3, MDA-MB-468, MDA-MB-435, HCT 116, SKOV3, IGROV-1) is listed as “demonstrated activity”.
For `CO[C@H]1C[C@@H]2CC[C@@H](C)[C@@](O)(O2)C(=O)C(=O)N2CCCC[C@H]2C(=O)O[C@H]([C@H](C)C[C@@H]2CC[C@@H](OC(=O)C(C)(CO)CO)[C@H](OC)C2)CC(=O)[C@H](C)/C=C(\C)[C@@H](O)[C@@H](OC)C(=O)[C@H](C)C[C@H](C)/C=C/C=C/C=C/1C` [Torisel], the “activity in xenograft mouse model” value [8] is listed as “active”.
For `COC[C@H]1OC(=O)c2coc3c2[C@@]1(C)C1=C(C3=O)[C@@H]2CCC(=O)[C@@]2(C)C[C@H]1OC(C)=O` [Wortmannin], the IC50 [9] is given as ~60 nM.
For `FC(F)c1nc2ccccc2n1-c1nc(N2CCOCC2)nc(N2CCOCC2)n1` [ZSTK474, 2-(2-difluoromethylbenzoimidazol-1-yl)-4,6-dimorpholino-1,3,5-triazine], the IC50 [10] is listed as > 10000 nM and the tumor growth inhibition ([7]; chronic oral administration, 400 mg/kg, A549, PC-3, WiDr) is listed as “completely inhibited growth”.
For `Cn1c(=O)c2c(ncn2C)n(C)c1=O` [caffeine], the IC50 [9] is listed as 300000 nM.
